According to patent US8530413B2, “Heterocyclically substituted methoxyphenyl derivatives with an oxo group, processes for preparation thereof and use thereof as medicaments” (Sanofi, priority 2010, dated 2013):

What follows are compounds tested against T1, GPCR GPR40 (Rattus norvegicus, UniProt Q8K3T4) (assay: In vitro FLIPR assay with recombinant cells which express the GPCR GPR40 (intracellular Ca2+)). Conditions: recombinant HEK293 cells expressing GPR40; Fluo-4 Ca2+ change; 100% = 10 μM linoleic acid.
T1 construct: expressed in transfected cells; host or cells: HEK293
T1 sequence (Q8K3T4 whole entry): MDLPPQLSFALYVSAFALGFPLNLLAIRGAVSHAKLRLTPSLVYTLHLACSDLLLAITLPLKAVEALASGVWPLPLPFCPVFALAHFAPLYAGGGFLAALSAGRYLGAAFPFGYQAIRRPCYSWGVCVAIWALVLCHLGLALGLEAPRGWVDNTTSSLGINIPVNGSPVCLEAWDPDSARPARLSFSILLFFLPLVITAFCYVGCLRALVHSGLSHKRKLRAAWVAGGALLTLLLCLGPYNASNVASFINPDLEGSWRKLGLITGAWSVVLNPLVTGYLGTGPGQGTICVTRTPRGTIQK
Type: cell-based
Method: In Vitro FLIPR Assay with Recombinant Cells which Express the GPCR GPR40
Function-testing assays were performed by means of the FLIPR technique (“Fluorescence Imaging Plate Reader”, Molecular Devices Corp.). For this purpose, agonist-induced changes were determined in the intracellular concentration of Ca^2+ in recombinant HEK293 cells which expressed the GPCR GPR40.
For the studies, cells were sown into 96-well microtiter plates (60 000 cells/well) and left to grow overnight. The medium was removed and the cells were incubated in buffer which contains the fluorescent dye Fluo-4. After this loading with dye, the cells were washed, test substance was added and changes were measured in the intracellular Ca^2+ concentration in the FLIPR instrument. Results were presented as the percentage change relative to the control (0%: no test substance added; 100%: 10 μM reference agonist linoleic acid added) and used to calculate dose/effect curves, and EC50 values were determined.

Structure (SMILES) | EC50
CC#CC(CC(=O)O)c1ccc(OCN2C(=O)C(C)(C)c3cc(Br)ccc32)cc1 (stereo not drawn) [Example 1, 3-[4-(5-Bromo-3,3-dimethyl-2-oxo-2,3-dihydroindol-1-ylmethoxy)phenyl]hex-4-ynoic acid] | 110 nM
CC#CC(CC(=O)O)c1ccc(OCN2C(=O)C(C)(C)c3cc(C(F)(F)F)ccc32)cc1 (stereo not drawn) [Example 3, 3-[4-(3,3-Dimethyl-2-oxo-5-trifluoromethyl-2,3-dihydroindol-1-ylmethoxy)phenyl]hex-4-ynoic acid] | 130 nM
CC#CC(CC(=O)O)c1ccc(OCn2c(=O)sc3ccccc32)cc1 (stereo not drawn) [Example 7, 3-[4-(2-Oxobenzothiazol-3-ylmethoxy)phenyl]hex-4-ynoic acid] | 50 nM
CC#CC(CC(=O)O)c1ccc(OCN2C(=O)C(C)(C)Oc3ccccc32)cc1 (stereo not drawn) [Example 8, 3-[4-(2,2-Dimethyl-3-oxo-2,3-dihydrobenzo[1,4]oxazin-4-ylmethoxy)phenyl]hex-4-ynoic acid] | 60 nM
CC#CC(CC(=O)O)c1ccc(OCN2C(=O)C(C)(C)Oc3cccnc32)cc1 (stereo not drawn) [Example 9] | 350 nM

Results, then the compound that gave them:

EC50 | Structure (SMILES)
4610 nM | CC#CC(CC(=O)O)c1ccc(OCN2C(=O)C(C)(C)c3ccc(Br)cc32)cc1 (stereo not drawn) [Example 2, 3-[4-(6-Bromo-3,3-dimethyl-2-oxo-2,3-dihydro-indol-1-ylmethoxy)phenyl]hex-4-ynoic acid]
280 nM | CC#CC(CC(=O)O)c1ccc(OCN2C(=O)C(C)(C)Oc3cc(Br)ccc32)cc1 (stereo not drawn) [Example 4, 3-[4-(7-Bromo-2,2-dimethyl-3-oxo-2,3-dihydrobenzo[1,4]oxazin-4-ylmethoxy)phenyl]hex-4-ynoic acid]
180 nM | CC#CC(CC(=O)O)c1ccc(OCN2C(=O)C(CC)(CC)c3cc(Br)ccc32)cc1 (stereo not drawn) [Example 5, 3-[4-(5-Bromo-3,3-diethyl-2-oxo-2,3-dihydroindol-1-ylmethoxy)phenyl]hex-4-ynoic acid]
440 nM | CC#CC(CC(=O)O)c1ccc(OCN2C(=O)CC(C)(C)c3cc(Br)ccc32)cc1 (stereo not drawn) [Example 6, 3-[4-(6-Bromo-4,4-dimethyl-2-oxo-3,4-dihydro-2H-quinolin-1-ylmethoxy)phenyl]hex-4-ynoic acid]
